Reference: ChEMBL document CHEMBL2157974, “Viridin analogs derived from steroidal building blocks” (Bioorg Med Chem Lett, 2012)

Columns and labels:
[1] = biological target: PI3-kinase p110-alpha/p85-alpha (Homo sapiens, UniProt P42336); assay: Inhibition of human recombinant P110alpha/p85alpha using phosphatidyl inositol as substrate after 1 hr by ADP-Glo Kinase assay; assay type: protein-complex assay
MCF7 = assay: Cytotoxicity against human MCF7 cells after 72 hrs by MTS/PMS assay; assay type: functional, cell-based; conditions: MCF7, 72 h
[2] = Lipophilicity, log P of the compound; assay type: physicochemical; conditions: octanol/water
[3] = Inhibition of PI3K

Sequence of PI3-kinase p110-alpha/p85-alpha (P27986 whole entry): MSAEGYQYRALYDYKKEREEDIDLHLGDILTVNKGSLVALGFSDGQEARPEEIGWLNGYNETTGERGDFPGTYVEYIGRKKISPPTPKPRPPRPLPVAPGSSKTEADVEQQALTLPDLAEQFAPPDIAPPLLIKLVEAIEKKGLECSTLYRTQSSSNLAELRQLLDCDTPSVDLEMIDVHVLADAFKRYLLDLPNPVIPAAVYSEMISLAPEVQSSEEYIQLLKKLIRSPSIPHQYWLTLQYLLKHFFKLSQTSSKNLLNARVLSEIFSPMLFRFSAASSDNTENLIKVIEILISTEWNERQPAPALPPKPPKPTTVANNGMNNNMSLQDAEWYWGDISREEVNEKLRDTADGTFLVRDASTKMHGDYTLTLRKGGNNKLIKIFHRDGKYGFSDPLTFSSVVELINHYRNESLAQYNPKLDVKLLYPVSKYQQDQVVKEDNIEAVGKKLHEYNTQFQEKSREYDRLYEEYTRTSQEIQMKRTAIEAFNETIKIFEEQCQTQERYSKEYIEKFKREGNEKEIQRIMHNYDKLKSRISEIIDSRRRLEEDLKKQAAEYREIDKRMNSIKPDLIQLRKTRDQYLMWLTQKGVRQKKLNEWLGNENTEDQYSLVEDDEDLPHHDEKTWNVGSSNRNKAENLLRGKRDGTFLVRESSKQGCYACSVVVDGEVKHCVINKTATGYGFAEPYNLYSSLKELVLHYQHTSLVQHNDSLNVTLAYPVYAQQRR
Sequence of PI3-kinase p110-alpha/p85-alpha (P42336 whole entry): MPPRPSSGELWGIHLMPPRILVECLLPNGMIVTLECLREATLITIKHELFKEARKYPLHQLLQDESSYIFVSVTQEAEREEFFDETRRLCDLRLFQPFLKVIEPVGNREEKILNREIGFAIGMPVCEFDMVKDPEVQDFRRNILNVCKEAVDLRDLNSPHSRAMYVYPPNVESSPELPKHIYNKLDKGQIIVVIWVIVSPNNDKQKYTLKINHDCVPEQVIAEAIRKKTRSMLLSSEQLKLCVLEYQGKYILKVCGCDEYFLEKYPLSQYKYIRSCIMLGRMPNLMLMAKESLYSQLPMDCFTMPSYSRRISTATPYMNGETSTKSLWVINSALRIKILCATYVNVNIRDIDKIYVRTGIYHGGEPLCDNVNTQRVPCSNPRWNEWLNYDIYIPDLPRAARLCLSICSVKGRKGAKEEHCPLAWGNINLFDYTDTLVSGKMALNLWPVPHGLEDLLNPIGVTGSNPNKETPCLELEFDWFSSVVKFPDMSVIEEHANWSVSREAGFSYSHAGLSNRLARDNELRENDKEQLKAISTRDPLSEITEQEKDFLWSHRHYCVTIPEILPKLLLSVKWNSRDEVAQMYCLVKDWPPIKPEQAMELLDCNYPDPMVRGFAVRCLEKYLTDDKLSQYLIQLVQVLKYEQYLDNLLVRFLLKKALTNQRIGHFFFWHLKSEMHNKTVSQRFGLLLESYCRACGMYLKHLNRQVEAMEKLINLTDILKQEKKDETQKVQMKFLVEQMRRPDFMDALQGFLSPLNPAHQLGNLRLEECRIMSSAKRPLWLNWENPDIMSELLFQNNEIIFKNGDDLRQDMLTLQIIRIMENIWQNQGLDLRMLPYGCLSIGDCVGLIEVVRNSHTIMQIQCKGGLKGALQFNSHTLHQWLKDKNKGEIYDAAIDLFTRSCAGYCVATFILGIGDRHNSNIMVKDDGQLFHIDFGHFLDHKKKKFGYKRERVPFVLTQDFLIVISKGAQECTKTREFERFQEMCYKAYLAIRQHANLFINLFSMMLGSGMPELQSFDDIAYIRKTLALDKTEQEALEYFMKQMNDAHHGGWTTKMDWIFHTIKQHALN

| Structure (SMILES) | IC50 [1] [nM] | IC50 (MCF7) [nM] | logP [2] | IC50 [3] [nM] |
| --- | --- | --- | --- | --- |
| C[C@]12CCC(=O)c3coc(c31)C(=O)[C@@H]1[C@@H]2CC[C@]2(C)C(=O)CC[C@@H]12 | 339 | 22900 | 2.65 |  |
| C=CCN/C=C1/C(=O)CC[C@@]2(C)C1=C(O)C(=O)[C@@H]1[C@@H]2CC[C@]2(C)C(=O)CC[C@@H]12 | 271 | 37700 |  |  |
| C[C@]12CCC(=O)c3coc(c31)C(=O)C[C@@H]2O (racemic) | 178 | > 100000 | 0.58 |  |
| CO[C@@H]1C(=O)c2coc3c2[C@@](C)(c2ccc4c(c2C3=O)CCC4=O)[C@@H]1O [VIRIDIN] |  |  |  | 2 |
| COC[C@H]1OC(=O)c2coc3c2[C@@]1(C)C1=C(C3=O)[C@@H]2CCC(=O)[C@@]2(C)C[C@H]1OC(C)=O [WORTMANNIN] |  | > 100000 |  | 2 |
